Legend:
D(2) dopamine receptor = D(2) dopamine receptor (Homo sapiens, UniProt P14416); experiment: Binding affinity to dopamine D2S receptor (unknown origin) by radioligand displacement assay
D(3) dopamine receptor = D(3) dopamine receptor (Homo sapiens, UniProt P35462); experiment: Binding affinity to dopamine D3 receptor (unknown origin) by radioligand displacement assay
Homo sapiens = organism: Homo sapiens; experiment: Ratio of Ki for binding affinity to D2S (unknown origin) to Ki for binding affinity to D3R (unknown origin)

Sequence of D(2) dopamine receptor (P14416 whole entry): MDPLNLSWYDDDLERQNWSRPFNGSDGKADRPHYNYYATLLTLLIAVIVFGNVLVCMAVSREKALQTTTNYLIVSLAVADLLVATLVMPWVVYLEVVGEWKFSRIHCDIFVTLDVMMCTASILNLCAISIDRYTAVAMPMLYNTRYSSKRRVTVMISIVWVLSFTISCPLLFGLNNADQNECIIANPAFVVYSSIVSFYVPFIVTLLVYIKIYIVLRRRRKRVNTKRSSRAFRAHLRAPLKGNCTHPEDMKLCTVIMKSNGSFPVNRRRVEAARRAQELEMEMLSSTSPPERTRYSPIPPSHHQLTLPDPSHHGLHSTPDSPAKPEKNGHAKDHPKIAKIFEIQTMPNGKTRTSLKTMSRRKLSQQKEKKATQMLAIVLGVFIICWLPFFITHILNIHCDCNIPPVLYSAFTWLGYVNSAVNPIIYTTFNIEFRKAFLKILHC
Sequence of D(3) dopamine receptor (P35462 whole entry): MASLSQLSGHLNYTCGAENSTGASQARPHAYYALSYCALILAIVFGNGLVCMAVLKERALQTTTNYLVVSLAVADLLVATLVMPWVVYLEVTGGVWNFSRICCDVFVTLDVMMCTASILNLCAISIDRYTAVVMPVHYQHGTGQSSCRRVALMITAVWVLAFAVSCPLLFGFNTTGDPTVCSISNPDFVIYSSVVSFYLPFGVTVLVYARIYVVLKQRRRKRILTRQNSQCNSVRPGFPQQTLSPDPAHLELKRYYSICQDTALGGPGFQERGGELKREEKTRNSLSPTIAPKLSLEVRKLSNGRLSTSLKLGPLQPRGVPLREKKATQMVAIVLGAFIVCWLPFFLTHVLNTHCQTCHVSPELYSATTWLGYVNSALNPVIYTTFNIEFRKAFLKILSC

## COc1ccccc1N1CCN(CCCCNC2=CC=CC3=[N+]4[N+](=Cc5c(C)cc(C)n5[B-]4(F)F)[B-](F)(F)N23)CC1
D(2) dopamine receptor
  Ki: 81.1 nM
D(3) dopamine receptor
  Ki: 27.2 nM
Homo sapiens
  Ratio Ki: 3

## COc1ccccc1N1CCN(CCCCNC2=CC=CC3=[N+]4[N+](=Cc5cc6ccccc6n5[B-]4(F)F)[B-](F)(F)N23)CC1
D(2) dopamine receptor
  Ki: 182 nM
D(3) dopamine receptor
  Ki: 16.7 nM
Homo sapiens
  Ratio Ki: 10.9

## CCc1c(C)c2n(c1C)[B-](F)(F)[N+]1=C3C=CC=C(NCCCCN4CCN(c5cccc(Cl)c5Cl)CC4)N3[B-](F)(F)[N+]1=C2
D(2) dopamine receptor
  Ki: 497 nM
D(3) dopamine receptor
  Ki: 52.1 nM
Homo sapiens
  Ratio Ki: 9

## Cc1cc(C)n2c1C=[N+]1[N+](=C3C=CC=C(NCCCCN4CCN(c5cccc(Cl)c5Cl)CC4)N3[B-]1(F)F)[B-]2(F)F
D(2) dopamine receptor
  Ki: 328 nM
D(3) dopamine receptor
  Ki: 22.5 nM
Homo sapiens
  Ratio Ki: 14.6

## CCc1c(C)c2n(c1C)[B-](F)(F)[N+]1=C3C=CC=C(NCCCCN4CCN(c5ccccc5OC)CC4)N3[B-](F)(F)[N+]1=C2
D(2) dopamine receptor
  Ki: 309 nM
D(3) dopamine receptor
  Ki: 34.3 nM
Homo sapiens
  Ratio Ki: 9.5

Reference: ChEMBL document CHEMBL5131451, “BOPPY-based novel fluorescent dopamine D2 and D3 receptor ligands” (Bioorg Med Chem Lett, 2022)
